The test system of data set [1] is stomach ulcers. The data set can be described thus: Gastric ulcers in rats with corona virus infection treated with indomethacin (Example 26). To be noted: indomethacin 30 mg/kg oral; cimetidine 25 mg/kg s.c. or Compound III 17.5 mg/kg s.c. where given; P<0.02. The format is in vivo, rat. The text has this:
Corona virus is a non-lethal upper respiratory viral pathogen that not infrequently infects rat colonies. It is a type of rodent coryza or catarrh, the equivalent of a disease that falls somewhere between human influenza and a severe common cold. The animals of this study suffered from this condition, a circumstance which was evident by observation, and which was confirmed by virological diagnosis at the Biological Resources Laboratory of the University of Illinois at Chicago. Since stress is a common component of peptic ulcer development in both animals and man, it was concluded that this feature of the status of these experimental animals rendered them appropriate for an ulcer study.
In this study, animals were not food deprived and were divided into treatment groups such that 15 rats received 30 mg/kg indomethacin alone (in water by oral gavage), 14 rats received indomethacin plus an injection of 25 mg/kg cimetidine subcutaneously, and 7 rats received indomethacin plus subcutaneous injection of 17.5 mg/kg of Compound III.
All animals were sacrificed by ether euthanasia 24 hours later and their stomachs evaluated for ulcer pathology. In this study ulcers were not hemorrhagic. Results are shown below as the average number of stomach ulcers per stomach.

Data set [2] concerns hind limbs. The experiment in a line: Hind-foot mobility in established adjuvant arthritis (Example 27). The data set is classed as in vivo, Lewis rats. Conditions: Compound III 50 mg/kg oral where given. From the text: Adjuvant arthritis was studied because it allows gaining of insight into effects of a drug in established and chronic inflammatory disease. Adjuvant arthritis shares certain features with rheumatoid arthritis but it is distinct. It is widely used in industry because it allows one to predict the potency of non-steroidal anti-inflammatory drugs (NSAID's) [Weichman, in Pharmaceutical Methods in the Control of Inflammation, Chang et al., eds.; Alan R. Liss, New York (1989) p. 362].
The rats used were of the Lewis strain, especially vulnerable to disease induction. Chronic polyarthritis was induced by the subcutaneous injection of complete Freund's adjuvant (CFA) into the rat tail. The CFA employed consists of 10 mg/ml heat-killed tubercle bacilli suspended in paraffin oil. An amount of 0.1 ml was injected, and the disease was allowed to develop over 14 days before daily assessments were made and treatments were initiated. Measurements that assess both increase in hind paw joint swelling and loss in hind limb function are taken.
Indomethacin was employed as a reference standard and given at 2 or 5 mg/kg. Treatment effects of Compound III, alone at 50 mg/kg given by oral gavage and in combination with indomethacin were assessed. Compound III was dissolved in water and indomethacin was suspended in water by homogenization. Both were administered sequentially by oral gavage.
Measurements by caliper include the lateral diameter of the ankle joint of each hind limb, and the dorsoventral diameter of the foot, just behind the toes. The prime measurement of function focusses on the fact that in many animals by day 14, and in most animals by day 16 after adjuvant administration, the arthritic rat can lose use of his hind limbs, which then are dragged behind him like logs. To quantify the recovery of function during treatment, a technique of Martel et al., Agents Actions, 15:403 (1984) was adapted. A blind assessment of the number of animals in each group that were able to draw their leg(s) under them and have these bear weight was carried out.

Data set [3] has as its system rat stomachs. The experiment in a line: Gastric pathology following inflammatory stress and indomethacin, food-deprived rats (Example 21). The format is in vivo. On the procedure:
(§1) Stress was induced by the following procedure. On day one, under ether anesthesia, 18 male Sprague Dawley rats were injected with a suspension of Zymosan A (1 mg/ml in normal saline; Sigma Chemical Co.) in each hind paw. Swelling developed and persisted. This treatment generated activated blood complement locally (including the C5a moiety), which then spread by the bloodstream throughout the animal.
(§2) Twenty-four hours later all rat paws were reinjected, this time with 0.1 ml of proinflammatory zymosan-activated rat serum containing additional amounts of inflammatory complement fragment C5a (as in Example 23, hereinafter). Five hours later 30 mg/kg indomethacin in an aqueous suspension was given to nine such rats by oral garage. These rats also received a subcutaneous injection of 0.1 ml normal saline. Nine other such rats were given indomethacin as above, and Compound III (50 mg/kg in normal saline subcutaneously). Four additional rats, not stressed (normal) were given water by garage as a placebo and saline subcutaneously. All rats were fed ad libitum on standard diet.
In contrast to the study of Example 20, above, in this study animals were food deprived for 24 hours before and also during the 24 hours following drug treatments. All animals were subjected to the inflammatory stress as described in Example 20. Eight such rats received 30 mg/kg indomethacin, and eight rats received indomethacin and Compound III (subcut., 50 mg/kg). Four rats, not stressed, were given placebo by garage.
All animals were sacrificed by ether euthanasia 24 hours later, and their stomachs evaluated for ulcer-related pathology.
In the stressed animals given indomethacin alone, pathology was much more severe than in Example 20. For scoring, therefore, the frequency of ulcers per rat stomach was quantified, and whether they were or were not bleeding.

Data set [4] relates to rat stomachs. The experiment in a line: Gastric pathology following inflammatory stress and indomethacin, fed rats (Example 20). The format is in vivo, male Sprague Dawley rats. To be noted: stress + indomethacin 30 mg/kg oral; Compound III 50 mg/kg subcutaneously where given; 24 hours. On the procedure:
as §1, §2
Twenty-four hours later all animals were sacrificed by ether euthanasia. Their stomachs were washed with saline and evaluated for ulcer-related pathology using an illuminated magnifying glass. This assay is similar to that reported by Kinney et al., J. Med. Chem., 33:327 (1990).

The test system of data set [5] is rat stomachs. The description is as above. Further details: species or system male Sprague Dawley rats. To be noted: in vivo.
Data set [6] concerns rat paw. Conditions: in vivo; cited from earlier work.

Several values for one entry are separate records, joined by “and”; a condition that tells them apart may be missing. Equal values may be shown once.

With `COc1ccc2c(c1)c(CC(=O)O)c(C)n2C(=O)c1ccc(Cl)cc1` [Indomethacin], the “Ulcer Frequency per stomach, Mn ± SE” value in data set [1] amounted to 2.53 ± 0.52 Per Stomach. In addition, the “Total Immobility - Percent” value was determined as 100% in data set [2] (Day 0, indomethacin 2 mg/kg/day); 100% in data set [2] (Day 0, indomethacin 5 mg/kg/day); 67% in data set [2] (Day 1, indomethacin 2 mg/kg/day, p < 0.02); 70% in data set [2] (Day 1, indomethacin 5 mg/kg/day, p < 0.01); 44% in data set [2] (Day 2, indomethacin 2 mg/kg/day, p < 0.01); 20% in data set [2] (Day 2, indomethacin 5 mg/kg/day). The “Total Immobility - Percent” value in data set [2] (Day 3, indomethacin 2 mg/kg/day) was determined as 44%; in data set [2] (Day 3, indomethacin 5 mg/kg/day, control 100 (12/12)), 10%. In addition, the “bleeding ulcers in group” value in data set [3] (eight rats) is 22. In addition, in data set [3] (eight rats), the “total ulcers found in group” value came to 23 ulcers. Moreover, the “Bleeding Ulcer Frequency, Mn ± SE” value in data set [3] (indomethacin 30 mg/kg, Compound III 50 mg/kg subcut. where given, 24 hours, P<0.001 vs indomethacin alone) is reported as 2.65 ± 0.063 Per Rat. Moreover, the “Total Ulcer Frequency, n ± SE” value in data set [3] (indomethacin 30 mg/kg, Compound III 50 mg/kg subcut. where given, 24 hours, P<0.01 vs indomethacin alone) is given as 2.88 ± 0.67 Per Rat. Besides, in data set [3] (indomethacin: all eight rats, indomethacin + Compound III: only two rats), the “ulcers per affected rat” value is listed as 1-5 ulcers. The “Mean Pathology score” value in data set [4] worked out at 1.43. In addition, the “Pathology score, individual rat” value in data set [4] was 0.5 and 1.0 and 0.0 and 4.0 and 7.0. In data set [5], the “ulceration by indomethacin without stress” value is “induced no ulceration”. Further, the “effect on edema that develops following removal of the tourniquet, in words” value in data set [6] is given as “not effective at any time”.

The record behind these values is patent US5358936A, “Anionic furanose derivatives, methods of making and using the same” (Gordon; Paul, priority 1991, dated 1994).
